The record followed here is patent US12617762B2, “Carboxy derivatives with antiinflamatory properties” (Sitryx Therapeutics Limited, priority 2019, dated 2026).

In data set [1] the test system is IL-1β cytokine output from THP-1s. The experiment in a line: THP-1 AlphaLISA IL-1β cytokine inhibition assay. It is filed as cell-based. The following applies: Homo sapiens, THP-1, differentiated THP-1 cells, LPS then nigericin. On the procedure: Measuring Inhibitory Effects on IL-1β Cytokine Output from THP-1s
The cytokine inhibition profiles of compounds of formula (I) were determined in a differentiated THP-1 cell assay. All assays were performed in RPMI-1640 growth medium (Gibco), supplemented with 10% fetal bovine serum (FBS; Gibco), 1% penicillin-streptomycin and 1% sodium pyruvate unless specified otherwise. The IL-1β cytokine inhibition assay was run in a background of differentiated THP-1 cells as described below. All reagents described were from Sigma-Aldrich unless specified otherwise. Compounds were prepared as 10 mM DMSO stocks.
THP-1 cells were expanded as a suspension up to 80% confluence in appropriate growth medium. Cells were harvested, suspended, and treated with an appropriate concentration of phorbol 12-myristate 13-acetate (PMA) over a 72 hr period (37° C./5% CO2).
Following 72 hrs of THP-1 cell incubation, cellular medium was removed and replaced with fresh growth media containing 1% of FBS. Working concentrations of compounds were prepared separately in 10% FBS treated growth medium and pre-incubated with the cells for 30 minutes (37° C./5% CO2). Following the 30 minute compound pre-incubation, THP-1s were treated with an appropriate concentration of LPS and the cells were subsequently incubated for a 24 hr period (37° C./5% CO2). An appropriate final concentration of Nigericin was then dispensed into the THP-1 plates and incubated for 1 hour (37° C./5% CO2) before THP-1 supernatants were harvested and collected in separate polypropylene 96-well holding plates.
Reagents from an IL-1β and IL-6 commercial kit (Perkin Elmer) were prepared and run according to the manufacturer's instructions. Subsequently, fluorescence signal detection in a microplate reader was measured (EnVision® Multilabel Reader, Perkin Elmer).
Percentage inhibition was calculated per cytokine by normalising the sample data to the high and low controls used within each plate (+/− LPS respectively).
A general note: Alpha assays give light when donor and acceptor beads are brought close together.

The nature of data set [2]: Hepatocyte stability assay, mouse. It is filed as in vitro ADME. The following applies: mouse, hepatocytes; for hepatocyte CLint at 10 μM: Hepatocyte stability Clint; for half-life at 10 μM: Hepatocyte stability T½. An excerpt: (§1) Defrosted cryo-preserved hepatocytes (viability >70%) were used to determine the metabolic stability of a compound via calculation of intrinsic clearance (CIint; a measure of the removal of a compound from the liver in the absence of blood flow and cell binding). Clearance data are particularly important for in vitro work as they can be used in combination with in vivo data to predict the half-life and oral bioavailability of a drug.
(§2) The metabolic stability in hepatocytes assay involves a time-dependent reaction using both positive and negative controls. The cells were pre-incubated at 37° C. then spiked with test compound (and positive control); samples were taken at pre-determined time intervals and were analysed to monitor the change in concentration of the initial drug compound over 60 minutes. A buffer incubation reaction (with no hepatocytes present) acted as a negative control and two cocktail solutions, containing compounds with known high and low clearance values (verapamil/7-hydroxycoumarin and propranolol/diltiazem), acted as positive controls. • 1. The assay was run with a cell concentration of 0.5×10^6 cells/mL in Leibovitz buffer. • 2. All compounds and controls were run in duplicate. • 3. Compound concentration was 10 μM. • 4. All compounds and controls were incubated with both cells and buffer to show turnover was due to hepatic metabolism. • 5. All wells on the incubation plate had 326.7 μL of either cells or buffer added. • 6. Prior to assay, cell and buffer-only incubation plates were preincubated for 10 mins at 37° C. • 7. The assay was initiated by adding compounds, 3.3 μL of 1 mM in 10% DMSO—90% Buffer; final DMSO concentration was 0.1%. • 8. Samples were taken at regular timepoints (0, 5, 10, 20, 40, 60 min) until 60 mins. • 9. Sample volume was 40 μL and was added to 160 μL of crash solvent (acetonitrile with internal standard) and stored on ice. • 10. At the end of the assay, the crash plates were centrifuged at 3500 rpm for 20 mins at 4° C. • 11. 80 μL of clear supernatant was removed and mixed with 80 μL of deionised water before being analysed by LC-MS/MS.
(§3) Raw LC-MS/MS data was exported to, and analysed in, Microsoft Excel for determination of intrinsic clearance. The percentage remaining of a compound was monitored using the peak area of the initial concentration as 100%. Intrinsic clearance and half-life values were calculated using a graph of the natural log of percentage remaining versus the time of reaction in minutes.

The nature of data set [3]: Hepatocyte stability assay, human. It is filed as in vitro ADME. The following applies: human, hepatocytes; for hepatocyte CLint at 10 μM: Hepatocyte stability Clint; for half-life at 10 μM: Hepatocyte stability T½.
Excerpt: as §1, §2, §3

For data set [4], the system named is NRF2 (nuclear factor erythroid 2-related factor 2). The experiment in a line: NRF2 +/-GSH activation assay (DiscoverX PathHunter NRF2 translocation kit, U2OS cells). It is filed as cell-based. The following applies: for NRF2 activation +GSH Emax / NRF2 activation −GSH Emax: normalised to DMF high control. The procedure:
Measuring Compound Activation Effects on the Anti-Inflammatory Transcription Factor NRF2 in DiscoverX PathHunter NRF2 Translocation Kit
Potency and efficacy of compounds of formula (I) against the target of interest to activate NRF2 (nuclear factor erythroid 2-related factor 2) were determined using the PathHunter NRF2 translocation kit (DiscoverX). The NRF2 translocation assay was run using an engineered recombinant cell line, utilising enzyme fragment complementation to determine activation of the Keap1-NRF2 protein complex and subsequent translocation of NRF2 into the nucleus. Enzyme activity was quantified using a chemiluminescent substrate consumed following the formation of a functional enzyme upon PK-tagged NRF2 translocation into the nucleus.
The assay was run under both +/−GSH (glutathione) conditions to determine the sensitivity of the compounds' NRF2-activating abilities to attenuation by GSH.
Additionally, a defined concentration of DMF was used as the ‘High’ control to normalise test compound activation responses to.
U2OS PathHunter eXpress cells were thawed from frozen prior to plating. Following plating, U2OS cells were incubated for 24 hrs (37° C./5% CO2) in commercial kit provided cell medium.
Following 24 hrs of U2OS incubation, cells were directly treated with an appropriate final concentration of compound, for −GSH conditions or, for +GSH conditions, an intermediate plate containing 6× working concentrations of compound stocks was prepared in a 6 mM working concentration of GSH solution (solubilised in sterile PBS). Following a 30 minute compound-GSH pre-incubation (37° C./5% CO2) for +GSH treatment, plated U2OS cells were incubated with an appropriate final concentration of compound and GSH.
Following compound (+/−GSH) treatment, the U2OS plates were incubated for a further 6 hours (37° C./5% CO2) before detection reagent from the PathHunter NRF2 commercial kit was prepared and added to test plates according to the manufacturer's instructions. Subsequently, the luminescence signal detection was measured in a microplate reader (PHERAstar®, BMG Labtech).
Percentage activation was calculated by normalising the sample data to the high and low controls used within each plate (+/−DMF).

Where [5] appears, read: +GSH, 30 minute compound-GSH pre-incubation, read-out: NRF2 activation +GSH EC50.
The mark [6] stands for this setting: −GSH, U2OS PathHunter cells, 6 hours compound treatment, read-out: NRF2 activation −GSH EC50.

Where two headings read alike, the source gives them in different places. Bounds are passed on as bounds.

As to `C=C(Cc1nc(-c2cccc(CCCC)c2)no1)C(=O)O` [Example 27, 2-((3-(3-butylphenyl)-1,2,4-oxadiazol-5-yl)methyl)acrylic acid], the IC50 – broadly, the concentration at which inhibition is half-maximal – in data set [1] was 29.6 µM. Moreover, in data set [2], the hepatocyte CLint (usually a measure of how fast metabolising enzymes remove a compound, apart from limits set by blood flow) at 10 μM worked out at 281 µL/min/1e6 cells and the half-life (usually how long it takes for the measured level to halve) at 10 μM was 5 min. For the same compound, in data set [3], the hepatocyte CLint at 10 μM was found to be 156 µL/min/1e6 cells and the half-life at 10 μM came to 8 min.
For `C=C(Cc1nc(CCCCCCCC)cs1)C(=O)O` [Example 38, 2-((4-octylthiazol-2-yl)methyl)acrylic acid], in that order: 7.8 µM, 204 µL/min/1e6 cells, 9 min, above 447 µL/min/1e6 cells and below 3 min.
For `C=C(Cc1noc(C(F)(F)c2ccc(C(F)(F)F)cc2)n1)C(=O)O` [Example 97, 2-((5-(difluoro(4-(trifluoromethyl)phenyl)methyl)-1,2,4-oxadiazol-3-yl)methyl)acrylic acid], in that order: 22.1 µM, 79 µL/min/1e6 cells, 15 min, 13 µL/min/1e6 cells and 125 min.
The corresponding values for `C=C(Cc1nc(-c2ccc(C(F)(F)CCC)cc2)no1)C(=O)O` [Example 98, 2-((3-(4-(1,1-difluorobutyl)phenyl)-1,2,4-oxadiazol-5-yl)methyl)acrylic acid] are 37.2 µM, 208 µL/min/1e6 cells, 6 min, 70 µL/min/1e6 cells and 23 min.
`C=C(Cc1nc(-c2ccc(OCc3ccccc3)cc2)no1)C(=O)O` [Example 100, 2-((3-(4-(benzyloxy)phenyl)-1,2,4-oxadiazol-5-yl)methyl)acrylic acid] returned an IC50 in data set [1] of 25.8 µM. In addition, in data set [2], the hepatocyte CLint at 10 μM is above 460 µL/min/1e6 cells and the half-life at 10 μM is below 3 min. Moreover, in data set [3], the hepatocyte CLint at 10 μM amounted to 77 µL/min/1e6 cells and the half-life at 10 μM is 19 min.
For `C=C(Cc1nc(C2(c3ccc(OC4CCC4)cc3)CC2)no1)C(=O)O` [Example 111, 2-((3-(1-(4-cyclobutoxyphenyl)cyclopropyl)-1,2,4-oxadiazol-5-yl)methyl)acrylic acid], in that order: 31.4 µM, 382 µL/min/1e6 cells, 3 min, 23 µL/min/1e6 cells and 71 min.
Take `C=C(Cc1cnc(CCCCCCCC)cn1)C(=O)O` [Example 113]: in data set [1], 20.1 µM corresponded to half-maximal inhibition (IC50). In data set [2], the hepatocyte CLint at 10 μM was above 460 µL/min/1e6 cells and the half-life at 10 μM is below 3 min. Also, in data set [3], the hepatocyte CLint at 10 μM stood at 290 µL/min/1e6 cells and the half-life at 10 μM came to 5 min.
Take `C=C(Cc1nc(-c2ccc(SC(F)(F)F)cc2)no1)C(=O)O` [Example 158, 2-((3-(4-((trifluoromethyl)thio)phenyl)-1,2,4-oxadiazol-5-yl)methyl)acrylic acid]: the IC50 in data set [1] is above 31.6 µM. The half-maximal effective concentration (EC50) (usually the concentration that produces a half-maximal response) in data set [4] (setting [5]) worked out at 2.9 µM; in data set [4] (setting [6]), 2.6 µM. For the same compound, in data set [4] (+GSH), the “NRF2 activation +GSH Emax” value was determined as 196%. Further, the “NRF2 activation −GSH Emax” value in data set [4] (−GSH) is 189%.
`C=C(Cc1nc(-c2ccc(OCCCOC)cc2)no1)C(=O)O` [Example 159, 2-((3-(4-(3-methoxypropoxy)phenyl)-1,2,4-oxadiazol-5-yl)methyl)acrylic acid] returned an IC50 in data set [1] above 100 µM. Moreover, the EC50 is 39.9 µM in data set [4] (setting [5]) and 34.4 µM in data set [4] (setting [6]). Besides, in data set [4] (+GSH), the “NRF2 activation +GSH Emax” value was 85%. Further, in data set [4] (−GSH), the “NRF2 activation −GSH Emax” value came to 87%.
Compound `C=C(Cc1nc(-c2ccc(OCCCC)c(Cl)c2)no1)C(=O)O` [Example 160, 2-((3-(4-butoxy-3-chlorophenyl)-1,2,4-oxadiazol-5-yl)methyl)acrylic acid] had an IC50 in data set [1] above 10 µM. Also, the EC50 in data set [4] (setting [5]) was found to be 4.1 µM; in data set [4] (setting [6]), 5 µM. In data set [4] (+GSH), the “NRF2 activation +GSH Emax” value is reported as 238%. Also, the “NRF2 activation −GSH Emax” value in data set [4] (−GSH) was found to be 216%.
For `C=C(Cc1nc(-c2ccc(OCCCC)c(C(F)(F)F)c2)no1)C(=O)O` [Example 161, 2-((3-(4-butoxy-3-(trifluoromethyl)phenyl)-1,2,4-oxadiazol-5-yl)methyl)acrylic acid], in that order: above 10 µM, 7.2 µM, 25.1 µM, 114% and 258%.
Compound `C=C(Cc1nc(Cc2ccc(OC)c(Cl)c2)no1)C(=O)O` [Example 163, 2-((3-(3-chloro-4-methoxybenzyl)-1,2,4-oxadiazol-5-yl)methyl)acrylic acid] returned an IC50 in data set [1] above 100 µM. Further, the EC50 in data set [4] (setting [5]) was above 100 µM; in data set [4] (setting [6]), 61.4 µM. For the same compound, the “NRF2 activation +GSH Emax” value in data set [4] (+GSH) is reported as −10%. Besides, the “NRF2 activation −GSH Emax” value in data set [4] (−GSH) is reported as 61%.
In data set [1], `C=C(Cc1nc(Cc2cc(F)c(Cl)c(F)c2)no1)C(=O)O` [Example 164, 2-((3-(4-chloro-3,5-difluorobenzyl)-1,2,4-oxadiazol-5-yl)methyl)acrylic acid] gave an IC50 above 100 µM. The EC50 in data set [4] (setting [5]) was 63.4 µM; in data set [4] (setting [6]), 42.7 µM. For the same compound, in data set [4] (+GSH), the “NRF2 activation +GSH Emax” value is listed as 5.5%. For the same compound, the “NRF2 activation −GSH Emax” value in data set [4] (−GSH) was 62%.
Consider `C=C(Cc1nc(Cc2ccc(C)c(Cl)c2)no1)C(=O)O` [Example 165, 2-((3-(3-chloro-4-methylbenzyl)-1,2,4-oxadiazol-5-yl)methyl)acrylic acid], for which the IC50 in data set [1] was above 100 µM. Besides, the EC50 in data set [4] (setting [5]) and in data set [4] (setting [6]) was above 100 µM throughout. In addition, in data set [4] (+GSH), the “NRF2 activation +GSH Emax” value is 16%. Also, the “NRF2 activation −GSH Emax” value in data set [4] (−GSH) worked out at 25%.
